Measurements from patent US10913727B2, “Modulators of the integrated stress pathway” (Calico Life Sciences LLC, priority 2016, dated 2021).

System: HEK293T cells carrying the ATF4 luciferase reporter
Experiment: ATF4-Luc assay, in vitro model of Vanishing Cell White Matter Disease (VWMD)
Format: cell-based
Settings: Homo sapiens, HEK-293T, 1 μg/mL tunicamycin, 7 hours, One Glo luminescence
Summary of the method: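 Compound at 200 nM and tunicamycin at 1 μg/mL were given together for 7 h to HEK293T cells stably transduced with an ATF4 5′-UTR-driven firefly luciferase reporter. Read-out by luminescence, reported as EC50.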

O=C(COc1ccc(Cl)c(F)c1)NC12CC(NC(=O)c3cnc(C(F)(F)F)cn3)(C1)C2 [Compound 115, N-{3-[2-(4-chloro-3-fluorophenoxy)acetamido]bicyclo[1.1.1]pentan-1-yl}-5-(trifluoromethyl)pyrazine-2-carboxamide]
EC50: 1 to 2 µM

CCOc1ccccc1C(=O)NC12CC(NC(=O)COc3ccc(Cl)c(F)c3)(C1)C2 [Compound 538, N-{3-[2-(4-chloro-3-fluorophenoxy)acetamido]bicyclo[1.1.1]pentan-1-yl}-2-ethoxybenzamide]
EC50: < 0.05 µM

O=C(COc1ccc(Cl)c(F)c1)NC12CC(NC(=O)c3ccoc3)(C1)C2 [Compound 305, N-{3-[2-(4-chloro-3-fluorophenoxy)acetamido]bicyclo[1.1.1]pentan-1-yl}furan-3-carboxamide]
EC50: 0.25 to 1 µM

Cc1noc(C(=O)NC23CCC(NC(=O)COc4ccc(Cl)c(F)c4)(CC2)C(O)C3)n1 (stereo not drawn) [Compound 503, N-{4-[2-(4-chloro-3-fluorophenoxy)acetamido]-3-hydroxybicyclo[2.2.2]octan-1-yl}-3-methyl-1,2,4-oxadiazole-5-carboxamide]
EC50: 0.05 to 0.25 µM

Cc1scnc1C(=O)NC12CC(NC(=O)COc3ccc(Cl)c(F)c3)(C1)C2 [Compound 541, N-{3-[2-(4-chloro-3-fluorophenoxy)acetamido]bicyclo[1.1.1]pentan-1-yl}-5-methyl-1,3-thiazole-4-carboxamide]
EC50: 1 to 2 µM

O=C(COc1ccc(Cl)c(F)c1)NC12CC(NC(=O)c3cccc(CO)c3)(C1)C2 [Compound 419, N-{3-[2-(4-chloro-3-fluorophenoxy)acetamido]bicyclo[1.1.1]pentan-1-yl}-3-(hydroxymethyl)benzamide]
EC50: 0.25 to 1 µM

O=C(COc1ccc(Cl)c(F)c1)NC12CCC(NC(=O)c3cn4ccccc4n3)(CC1)CC2O (stereo not drawn) [Compound 601, N-{4-[2-(4-chloro-3-fluorophenoxy)acetamido]-3-hydroxybicyclo[2.2.2]octan-1-yl}imidazo[1,2-a]pyridine-2-carboxamide]
EC50: 0.25 to 1 µM

O=C(COc1ccc(Cl)c(F)c1)NC12CC(NC(=O)c3ccncc3F)(C1)C2 [Compound 817, N-{3-[2-(4-chloro-3-fluorophenoxy)acetamido]bicyclo[1.1.1]pentan-1-yl}-3-fluoropyridine-4-carboxamide]
EC50: > 2 µM

CC(C)n1ccc(C(=O)NC23CC(NC(=O)COc4ccc(Cl)c(F)c4)(C2)C3)n1 [Compound 819, N-{3-[2-(4-chloro-3-fluorophenoxy)acetamido]bicyclo[1.1.1]pentan-1-yl}-1-(propan-2-yl)-1H-pyrazole-3-carboxamide]
EC50: 0.25 to 1 µM

O=C(COc1ccc(Cl)c(Cl)c1)NC12CCC(NC(=O)c3cc(C(F)F)no3)(CC1)C[C@@H]2O [Compound 758, N-{(3S)-4-[2-(3,4-dichlorophenoxy)acetamido]-3-hydroxybicyclo[2.2.2]octan-1-yl}-3-(difluoromethyl)-1,2-oxazole-5-carboxamide]
EC50: < 0.05 µM

O=C(COc1ccc(Cl)c(Cl)c1)NC12CC(NC(=O)c3ccccc3)(C1)C2 [Compound 521, N-{3-[2-(3,4-dichlorophenoxy)acetamido]bicyclo[1.1.1]pentan-1-yl}benzamide]
EC50: 0.05 to 0.25 µM

O=C(COc1ccc(Cl)c(F)c1)NC12CC(Nc3cc(-c4ccc(Cl)cc4)ccn3)(C1)C2 [Compound 415, 2-(4-chloro-3-fluorophenoxy)-N-(3-{[4-(4-chlorophenyl)pyridin-2-yl]amino}bicyclo[1.1.1]pentan-1-yl)acetamide]
EC50: > 2 µM

Cc1nc(C(=O)NC23CC(NC(=O)COc4ccc(Cl)c(F)c4)(C2)C3)sc1C [Compound 470, N-{3-[2-(4-chloro-3-fluorophenoxy)acetamido]bicyclo[1.1.1]pentan-1-yl}-4,5-dimethyl-1,3-thiazole-2-carboxamide]
EC50: 0.05 to 0.25 µM

O=C(COc1ccc(Cl)c(F)c1)NC12CC(NC(=O)c3cn4ccsc4n3)(C1)C2 [Compound 799, N-{3-[2-(4-chloro-3-fluorophenoxy)acetamido]bicyclo[1.1.1]pentan-1-yl}imidazo[2,1-b][1,3]thiazole-6-carboxamide]
EC50: > 2 µM

Cn1nc(C(=O)NC23CC(NC(=O)COc4ccc(Cl)c(F)c4)(C2)C3)c2ccccc21 [Compound 823, N-{3-[2-(4-chloro-3-fluorophenoxy)acetamido]bicyclo[1.1.1]pentan-1-yl}-1-methyl-1H-indazole-3-carboxamide]
EC50: > 2 µM

Cc1cc(C(=O)NC23CC(NC(=O)COc4ccc(Cl)c(F)c4)(C2)C3)n(C)n1 [Compound 241, N-{3-[2-(4-chloro-3-fluorophenoxy)acetamido]bicyclo[1.1.1]pentan-1-yl}-1,3-dimethyl-1H-pyrazole-5-carboxamide]
EC50: < 0.05 µM

Cn1nc(C(F)(F)F)cc1C(=O)NC12CC(NC(=O)COc3ccc(Cl)c(F)c3)(C1)C2 [Compound 582, N-{3-[2-(4-chloro-3-fluorophenoxy)acetamido]bicyclo[1.1.1]pentan-1-yl}-1-methyl-3-(trifluoromethyl)-1H-pyrazole-5-carboxamide]
EC50: 0.05 to 0.25 µM

O=C(COc1ccc2c(c1)OC(F)(F)O2)NC12CC(NC(=O)c3ccc(OC(F)(F)F)cn3)(C1)C2 [Compound 378, N-(3-{2-[(2,2-difluoro-2H-1,3-benzodioxol-5-yl)oxy]acetamido}bicyclo[1.1.1]pentan-1-yl)-5-(trifluoromethoxy)pyridine-2-carboxamide]
EC50: < 0.05 µM

O=C(COc1ccc(Cl)c(F)c1)NC12CCC(NC(=O)c3coc(C(F)(F)F)c3)(CC1)CC2O (stereo not drawn) [Compound 566, N-{4-[2-(4-chloro-3-fluorophenoxy)acetamido]-3-hydroxybicyclo[2.2.2]octan-1-yl}-5-(trifluoromethyl)furan-3-carboxamide]
EC50: < 0.05 µM

Cn1cc2c(NC34CC(NC(=O)COc5ccc(Cl)c(F)c5)(C3)C4)nccc2n1 [Compound 492, 2-(4-chloro-3-fluorophenoxy)-N-{3-[(2-methyl-2H-pyrazolo[4,3-c]pyridin-4-yl)amino]bicyclo[1.1.1]pentan-1-yl}acetamide]
EC50: 0.05 to 0.25 µM

O=C(COc1ccc(Cl)c(F)c1)NC12CCC(NC(=O)c3ccno3)(CC1)CC2O (stereo not drawn) [Compound 628, N-{4-[2-(4-chloro-3-fluorophenoxy)acetamido]-3-hydroxybicyclo[2.2.2]octan-1-yl}-1,2-oxazole-5-carboxamide]
EC50: 0.25 to 1 µM

CCc1cc(C(=O)NC23CCC(NC(=O)COc4ccc(Cl)c(F)c4)(CC2)C(O)C3)on1 (stereo not drawn) [Compound 515, N-{4-[2-(4-chloro-3-fluorophenoxy)acetamido]-3-hydroxybicyclo[2.2.2]octan-1-yl}-3-ethyl-1,2-oxazole-5-carboxamide]
EC50: < 0.05 µM

Cc1ccc(C(=O)NC23CCC(NC(=O)COc4ccc(Cl)c(F)c4)(CC2)C(O)C3)s1 (stereo not drawn) [Compound 621, N-{4-[2-(4-chloro-3-fluorophenoxy)acetamido]-3-hydroxybicyclo[2.2.2]octan-1-yl}-5-methylthiophene-2-carboxamide]
EC50: 0.05 to 0.25 µM

Cc1cc(C(=O)NC23CC(NC(=O)COc4ccc(Cl)c(F)c4)(C2)C3)n(C(F)F)n1 [Compound 913, N-{3-[2-(4-chloro-3-fluorophenoxy)acetamido]bicyclo[1.1.1]pentan-1-yl}-1-(difluoromethyl)-3-methyl-1H-pyrazole-5-carboxamide]
EC50: 0.25 to 1 µM

O=C(COc1ccc(Cl)c(F)c1)NC12CC(NC(=O)c3ccc(OC(F)F)cn3)(C1)C2 [Compound 152, N-{3-[2-(4-chloro-3-fluorophenoxy)acetamido]bicyclo[1.1.1]pentan-1-yl}-5-(difluoromethoxy)pyridine-2-carboxamide]
EC50: 0.05 to 0.25 µM

O=C(COc1ccc(Cl)c(F)c1)NC12CCC(NC(=O)c3ccc(Cl)cn3)(CC1)C[C@@H]2O [Compound 730, 5-chloro-N-{(3S)-4-[2-(4-chloro-3-fluorophenoxy)acetamido]-3-hydroxybicyclo[2.2.2]octan-1-yl}pyridine-2-carboxamide]
EC50: 0.05 to 0.25 µM

O=C(COc1ccc(Cl)c(F)c1)NC12CCC(NC(=O)c3cc(C4CCCCC4)no3)(CC1)CC2O (stereo not drawn) [Compound 408, N-{4-[2-(4-chloro-3-fluorophenoxy)acetamido]-3-hydroxybicyclo[2.2.2]octan-1-yl}-3-cyclohexyl-1,2-oxazole-5-carboxamide]
EC50: > 2 µM

Cc1ncc(C(=O)NC23CCC(NC(=O)COc4ccc(Cl)c(F)c4)(CC2)[C@@H](O)C3)nc1C [Compound 672, N-{(3S)-4-[2-(4-chloro-3-fluorophenoxy)acetamido]-3-hydroxybicyclo[2.2.2]octan-1-yl}-5,6-dimethylpyrazine-2-carboxamide]
EC50: 0.05 to 0.25 µM

COCc1ccc(C(=O)NC23CC(NC(=O)COc4ccc(Cl)c(F)c4)(C2)C3)o1 [Compound 242, N-{3-[2-(4-chloro-3-fluorophenoxy)acetamido]bicyclo[1.1.1]pentan-1-yl}-5-(methoxymethyl)furan-2-carboxamide]
EC50: 0.05 to 0.25 µM

O=C(COc1ccc(Cl)c(F)c1)NC12CC(NC(=O)c3ccc4ocnc4c3)(C1)C2 [Compound 801, N-{3-[2-(4-chloro-3-fluorophenoxy)acetamido]bicyclo[1.1.1]pentan-1-yl}-1,3-benzoxazole-5-carboxamide]
EC50: > 2 µM

O=C(COc1ccc(Cl)c(F)c1)NC12CCC(NC(=O)c3cccnc3)(CC1)C(O)C2 (stereo not drawn) [Compound 217, N-{4-[2-(4-chloro-3-fluorophenoxy)acetamido]-2-hydroxybicyclo[2.2.2]octan-1-yl}pyridine-3-carboxamide]
EC50: 1 to 2 µM

CCn1nc(C)cc1C(=O)NC12CCC(NC(=O)COc3ccc(Cl)c(F)c3)(CC1)C(O)C2 (stereo not drawn) [Compound 603, N-{4-[2-(4-chloro-3-fluorophenoxy)acetamido]-3-hydroxybicyclo[2.2.2]octan-1-yl}-1-ethyl-3-methyl-1H-pyrazole-5-carboxamide]
EC50: 0.25 to 1 µM

Cc1csc(C(=O)NC23CCC(NC(=O)COc4ccc(Cl)c(F)c4)(CC2)C(O)C3)c1 (stereo not drawn) [Compound 622, N-{4-[2-(4-chloro-3-fluorophenoxy)acetamido]-3-hydroxybicyclo[2.2.2]octan-1-yl}-4-methylthiophene-2-carboxamide]
EC50: < 0.05 µM
